The source of these data is US20060166984A1, “Amino substituted benzo(hetero)cyclic derivatives” (priority 2003, published 2006).

SMILES strings stand for the structures. Read-outs that look alike come from different tables or passages of the source.

The test system of data set [1] is Twospotted Spider Mite (Tetranychus urticae). Put plainly: Twospotted Spider Mite dip test on lima bean plants. It is filed as in vivo. To be noted: 120 h, read-out: mortality compared to untreated controls. How it is done: Twospotted Spider Mite (Tetranychus urticae)
Lima bean plants in the 1st leaf-pair stage (variety ‘Henderson’) were infested with approximately 100 laboratory-reared mites per leaf by placing infested leaf sections on top of the test plants. The leaf sections were removed after 24 hours. The foliage of the intact plants was dipped into gradient solutions of the test compounds. Mite mortality was determined after 5 days.

The subject of data set [2] is Green Peach Aphid (myzus persicae). The experiment in a line: Green Peach Aphid foliar dip test on pepper plants. It is filed as in vivo. To be noted: 120 h, read-out: mortality in comparison with untreated controls. How it is done: Green Peach Aphid (myzus persicae)
(§1) The active compounds were formulated in 50:50 acetone:water and 100 ppm Kinetic® surfactant.
Pepper plants in the 2nd leaf-pair stage (variety ‘California Wonder’) were infested with approximately 40 laboratory-reared aphids by placing infested leaf sections on top of the test plants. The leaf sections were removed after 24 hours. The leaves of the intact plants were dipped into gradient solutions of the test compound and allowed to dry. Test plants were maintained under fluorescent light (24 hour photoperiod) at about 25° C. and […] relative humidity. Aphid mortality on the treated plants, relative to mortality on check plants, was determined after 5 days.

Data set [3] relates to Cotton Aphid (aphis gossypii). The experiment in a line: Cotton Aphid foliar dip test on cotton cotyledons. Type of data set: in vivo. The settings on record: 120 h, counts after 5 days, read-out: mortality in comparison with untreated controls. From the text: Cotton Aphid (aphis gossypii)
The active compounds were formulated in 50:50 acetone:water and 100 ppm Kinetic® surfactant (a nonionic wetting agent which is a blend of polyalkyleneoxide modified polydimethylsiloxane and polyoxypropylene-polyoxyethylene copolymers, available from Helena Chemical Company, Memphis, Tenn. 38119, U.S.A.).
Cotton plants at the cotyledon stage (one plant per pot) were infested by placing a heavily infested leaf from the main colony on top of each cotyledon. The aphids were allowed to transfer to the host plant overnight, and the leaf used to transfer the aphids was removed. The cotyledons were dipped in the test solution and allowed to dry. After 5 days, mortality counts were made.

The next data set concerns Bean Aphid (Aphis fabae). The experiment in a line: Bean Aphid dip test on nasturtium plants. It is filed as in vivo. The settings on record: 72 h, after 3 days, read-out: mortality compared to untreated controls. As to the method:
Nasturtium plants in the 1st leaf-pair stage (variety ‘Mixed Jewle’ were infested with approximately 25 laboratory-reared aphids by placing infested cut plants on top of the test plants. The cut plants were removed after 24 hours. The foliage and stem of the test plants were dipped into gradient solutions of the test compound. Aphid mortality was determined after 3 days.

In data set [4] the test system is Silverleaf whitefly (bemisia argentifolii). Put plainly: Silverleaf whitefly test on dipped cotton cotyledons. Type of data set: in vivo. To be noted: 72 h, whitefly adults on cotton, 3 days after treatment, read-out: mortality compared to untreated controls. As to the method:
Silverleaf whitefly (bemisia argentifolii)
as §1
Selected cotton plants were grown to the cotyledon state (one plant per pot). The cotyledons were dipped into the test solution to provide complete coverage of the foliage and placed in a well-vented area to dry. Each pot with treated seedling was placed in a plastic cup and 10 to 12 whitefly adults (approximately 3-5 day old) were introduced. The cups were covered with a re-usable screened lid (150 micron mesh polyester screen PeCap from Tetko Inc). Test plants were maintained in the holding room at about 25° C. and 20-40% relative humidity for 3 days avoiding direct exposure to the fluorescent light (24 hour photoperiod) to prevent trapping of heat inside the cup.
Mortality was assessed 3 days after treatment of the plants.

Where [5] appears, read: 300 ppm, spider mite on lima bean, after 5 days.
[6] abbreviates: 300 ppm, green peach aphid on pepper, after 5 days.

On to `CN1CCN(C2=CCCc3ccc(F)cc32)CC1` [Compound 21, 1-(7-Fluoro-3,4-dihydro-1-naphthalenyl)-4-methylpiperazine], for which the mortality at 300 ppm in data set [1] (setting [5]) was more than 70%.
As to `CN1CCN(c2cccc3ccccc23)CC1` [Compound 5, 1-Methyl-4-(1-naphthyl)-piperazine], the mortality at 300 ppm in data set [2] was more than 85%.
In turn, `CCN1CCN(C2=Cc3ccccc3C2)CC1` gave a melting point of 124 to 126 °C.
On the same count and under the same terms, in the case of `CCN1CCN(C2=CCCc3ccccc32)CC1` it was 68 to 70 °C.
In the case of `CN1CCN(C2CCSc3ccc(Cl)cc32)CC1` (stereo not shown) [Compound 16, 1-(6-Chloro-3,4-dihydro-2H-thiochromen-4-yl)-4-methylpiperazine], the values for the mortality at 300 ppm (in data set [3]; in the data set with Bean Aphid (Aphis fabae); in data set [2] (setting [6])) were more than 85%, more than 70% and more than 85%, respectively.
`CN1CCN(c2nccc3ccccc23)CC1` [Compound 12, 1-(1-Isoquinolinyl)-4-methylpiperazine]: in data set [1], the mortality at 300 ppm was more than 70%.
With `CN1CCN(C2CCCc3ccc(F)cc32)CC1` (stereo not shown) [Compound 20, 1-(7-Fluoro-1,2,3,4-tetrahydro-1-naphthalenyl)-4-methylpiperazine], the mortality at 300 ppm in data set [1] (setting [5]) was more than 70%; in data set [3], more than 85%; in data set [4], more than 95%; in data set [2] (setting [6]), more than 85%.
Regarding `CN1CCN(C2CCc3ccccc3C2)CC1` (stereo not shown) [Compound 14, 1-(1,2,3,4-Tetrahydro-2-naphthalenyl)-4-methylpiperazine], in data set [1] (setting [5]), the mortality at 300 ppm was more than 70%.
Regarding `CN1CCN([C@@H]2C[C@@H](c3ccc(F)cc3)c3ccc(Cl)cc32)CC1` (relative stereo) [Compound 61, Trans-1-[3-(4-fluorophenyl)-6-chloro-2,3-dihydro-1H-inden-1-yl]4-methylpiperazine], the mortality at 300 ppm in data set [3] and in data set [2] (setting [6]) was more than 85% in each case.
`CN1CCN(C2=Cc3ccccc3C2)CC1` had a melting point of 158 to 160 °C.

One may read the mortality as the percentage killed. Broadly, the melting point is the temperature of the solid-liquid transition.
